Measurements published in patent US9034859B2, “Sulfated oxysterol and oxysterol sulfation by hydroxysterol sulfotransferase promote lipid homeostasis and liver proliferation” (Virginia Commonwealth University, priority 2011, dated 2015).
Values joined by “and” are separate entries in the source; they are usually repeats but may differ in a detail not shown here. Equal values may be shown once.

Legend:
[1] = HPLC analysis of serum lipoprotein profiles; type: in vivo, C57BL/6J female mice; conditions: HFD mice, acute treatment
Method: Animal studies were approved by Institutional Animal Care and Use Committee of McGuire Veterans Affairs Medical Center and were conducted in accordance with the Declaration of Helsinki, the Guide for the Care and Use of Laboratory Animals, and all applicable regulations. […] All mice were housed under identical conditions in an aseptic facility and given free access to water and food. At the end of each period, the mice were intraperitoneally injected with vehicle solution (ethanol/PBS; […] Serum triglyceride, total cholesterol, high density lipoprotein-cholesterol, glucose, alkaline phosphatase (ALK), alanine aminotransferase (ALT), and aspartate aminotransferase (AST) were measured using standard enzymatic techniques in the clinical laboratory at McGuire Veterans Affairs Medical Center. Lipoprotein profiles in sera were analyzed by HPLC as following described. […] Fractions were collected for 1.2 min each. The cholesterol assay was performed using 180 μl of each fraction plus 20 μl of a 10× solution of Wako Total Cholesterol E Reagent (Wako Chemicals USA, Richmond, Va.) in a 96 well plate, incubated at 37° C. and read at 595 nm.

[2] = test system: genes related to cell cycle progression; assay: RTqPCR of cell cycle-related genes in mouse liver after 25HC3S (Example 3); type: in vivo, C57BL/6 mice; conditions: doses lower than 5 mg/kg, 48 h, dose-dependent
Method: PCR assays were performed in 96-well optical reaction plates using the ABI 7500 Fast Real-Time PCR System (Applied Biosystems, Foster City, Calif.). PCR assays were conducted in triplicate wells for each sample. Baseline values of amplification plots were set automatically and threshold values were kept constant to obtain normalized cycle times and linear regression data. The following reaction mixture per well was used: 2×SYBR Green PCR Master Mix (10 ul), primer at the final concentration of 10 uM (1 ul), RNAse-free water (4 ul), cDNA (5 ul, 10 ng). For all experiments the following PCR conditions were used: denaturation at 95° C. for 10 minutes, followed by 40 cycles at 95° C. for 15 seconds, then at 60° C. for 60 seconds. Quantitative normalization of cDNA in each sample was performed using 18S gene as an internal control. Relative quantification was performed using the ΔΔCT method. Suitable primers were used for RtqPCR.

[3] = Long-term treatment of HFD-fed mice: body mass, liver weight, plasma lipids, liver function; type: in vivo, C57BL/6J female mice
Method: (§1) Animal studies were approved by Institutional Animal Care and Use Committee of McGuire Veterans Affairs Medical Center and were conducted in accordance with the Declaration of Helsinki, the Guide for the Care and Use of Laboratory Animals, and all applicable regulations. To examine the effect of 25HC3S on diet-induced lipid accumulation in sera and liver, 8-week-old female C57BL/6J mice (Charles River, Wilmington, Mass.) were randomly assigned to three groups: the first control group was fed a chow diet; the high fat diet (HFD) group was fed a HFD (Harlan Teklad, Madison, Wis.) containing 42% kcal from fat, 43% kcal from carbohydrate, 15% kcal from protein and 0.2% cholesterol; and the high cholesterol diet (HCD) group was fed a 2% cholesterol diet with 18% kcal from fat, 58% kcal from carbohydrate and 24% kcal from protein for 10 weeks, respectively. All mice were housed under identical conditions in an aseptic facility and given free access to water and food. At the end of each period, the mice were intraperitoneally injected with vehicle solution (ethanol/PBS; Vehicle), 25HC (25 mg/kg), or 25HC3S (25 mg/kg) for 2 times and fasted over night for acute treatment (n=15-17 for each group) or once every three days for 6 weeks (n=16 for each group) and fasted 5 hrs for long-term treatment; and blood samples were collected. Serum triglyceride, total cholesterol, high density lipoprotein-cholesterol, glucose, alkaline phosphatase (ALK), alanine aminotransferase (ALT), and aspartate aminotransferase (AST) were measured using standard enzymatic techniques in the clinical laboratory at McGuire Veterans Affairs Medical Center. Lipoprotein profiles in sera were analyzed by HPLC as following described.

[4] = test system: apoptotic and cell cycle related genes; assay: Mouse Cell cycle RT2 Profiler PCR Array of liver tissues; type: in vivo, C57BL/6 mice; conditions: 5 mg/kg, versus vehicle
Method: The real-time PCR array was performed using the Mouse Cell cycle RT2 Profiler™ PCR Array consisting of 84 key genes involved in apoptosis and proliferation as the manufacturer's instruction (SABiosciences, Frederick, Md.). Total mRNA was reverse-transcribed to cDNA as described above. Three of biologically-distinct specimens were pooled to reduce variance. The cDNA was then amplified precisely like real-time PCR in the primers-preloaded PCR plates on the ABI 7500 Fast Real-Time PCR System. ΔΔCT values between different stimulated samples were analyzed as the manufacturer's instruction, which output p-values for fold-regulation change.

[5] = Quantification of hepatic lipids and liver morphology, long-term treatment; type: in vivo, C57BL/6J female mice; conditions: HFD mice
Method: as §1
For each mouse, three specimens from different regions of the liver were collected and fixed in 4% paraformaldehyde in 0.1 M phosphate buffer at room temperature overnight. The regions of the specimens were standardized for all mice. The paraffin-embedded tissue sections (4 μm) were stained with hematoxylin and eosin.
Liver tissues were homogenized, and lipids were extracted with a mixture of chloroform and methanol (2:1), and filtered. The extracts, 0.2 ml, were evaporated to dryness and dissolved in 100 μl of isopropanol containing 10% of triton X-100 for cholesterol assay (Wako Chemicals USA, Richmond, Va.), the NEFA solution (0.5 g of EDTA-Na2, 2 g of Triton X-100, 0.76 ml of 1N NaOH, and 0.5 g of sodium azide/1, pH 6.5) for free fatty acid assay (Wako Chemicals USA, Richmond, Va.), or isopropanol only for triglyceride assay (Fisher Scientific, Pittsburgh, Pa.). All of the assays were performed according to the manufacturer's instructions, respectively. Each lipid concentration was normalized to liver weight.

Q: Which “LDL, VLDL, and HDL protein levels” value [1] does the source give for `CC(CCCC(C)(C)O)C1CCC2C3CC=C4CC(OS(=O)(=O)O)CCC4(C)C3CCC12C` (stereo not drawn) [25HC3S, 25-hydroxycholesterol-3-sulfate] here?
A: The value was “did not change”.

Q: What about the “cholesterol contents in HDL fractions” value [1] of the same compound?
A: Its value is “slightly decreased”.

Q: And the “triglyceride contents in VLDL fractions” value [1]?
A: The value was “markedly decreased”.

Q: What about the “hepatic mRNA of cMyc, cyclin A, FoxM1b, CDC25b” value [2] of the same compound?
A: Its value is “significant up-regulation”.

Q: And the liver weight ([3]; 6 weeks injection, fasted 5 hrs)?
A: Its liver weight is “significantly decreased”.

Q: And the body mass ([3]; i.p. once every three days, 6 weeks, control kept increasing)?
A: Its body mass is “stopped increasing body mass”.

Q: What about the “serum ALK, ALT and AST levels” value ([3]; long-term treatment) of the same compound?
A: The value was “significantly reduced”.

Q: What about the plasma triglyceride level ([3]; long-term treatment (data not shown)) of the same compound?
A: The plasma triglyceride level was “did not significantly decrease”.

Q: And the plasma cholesterol level ([3]; long-term treatment, compared to vehicle (data not shown))?
A: The plasma cholesterol level was “significantly decreased”.

Q: And the “decrease of Apaf1 expression” value ([4]; 48 h)?
A: Its value is 3 fold.

Q: What about the “decrease of Chek2 expression” value ([4]; 48 h) of the same compound?
A: The value was 4.5 fold.

Q: What about the “Fold change Apaf1(NM_009684)” value ([4]; 2 days, pooled mRNA) of the same compound?
A: Its value is −3.21 fold.

Q: What about the “Fold change Atr(NM_019864)” value ([4]; 2 days, pooled mRNA) of the same compound?
A: The value was −2.15 fold.

Q: And the “Fold change Bag1(NM_009736)” value ([4]; 2 days, pooled mRNA)?
A: The value was 2.0488 fold.

Q: And the “Fold change Bnip3(NM_009760)” value ([4]; 2 days, pooled mRNA)?
A: The value was 2.0112 fold.

Q: And the “Fold change Brca1(NM_009764)” value ([4]; 2 days, pooled mRNA)?
A: The value was −1.87 fold.

Q: And the “Fold change Ccnb2(NM_007630) Cyclin B2” value ([4]; 2 days, pooled mRNA)?
A: Its value is 1.90 fold.

Q: What about the “Fold change Ccne2(NM_009830) Cyclin E2” value ([4]; 2 days, pooled mRNA) of the same compound?
A: Its value is 2.52 fold.

Q: What about the “Fold change Cdc25a(NM_007658)” value ([4]; 2 days, pooled mRNA) of the same compound?
A: Its value is 1.53 fold.

Q: What about the “Fold change Cdc25c(NM_009860)” value ([4]; 2 days, pooled mRNA) of the same compound?
A: Its value is 1.56 fold.

Q: And the “Fold change Cdkn1a(NM_007669)” value ([4]; 2 days, pooled mRNA)?
A: The value was 3.0411 fold.

Q: What about the “Fold change Chek2(NM_016681)” value ([4]; 2 days, pooled mRNA) of the same compound?
A: Its value is −4.65 fold.

Q: And the “Fold change E2f3(NM_010093)” value ([4]; 2 days, pooled mRNA)?
A: Its value is 2.0193 fold.

Q: What about the “Fold change Ep300(NM_177821)” value ([4]; 2 days, pooled mRNA) of the same compound?
A: The value was 1.8114 fold.

Q: What about the “Fold change Esr1(NM_007956)” value ([4]; 2 days, pooled mRNA) of the same compound?
A: The value was 2.2535 fold.

Q: What about the “Fold change Gadd45a(NM_007836)” value ([4]; 2 days, pooled mRNA) of the same compound?
A: The value was −1.59 fold.

Q: What about the “Fold change Hif1a(NM_031168)” value ([4]; 2 days, pooled mRNA) of the same compound?
A: Its value is 1.7576 fold.

Q: And the “Fold change Mdm2(NM_010786)” value ([4]; 2 days, pooled mRNA)?
A: Its value is 1.6222 fold.

Q: And the “Fold change Myod1(NM_010866)” value ([4]; 2 days, pooled mRNA)?
A: The value was 1.56 fold.

Q: What about the “Fold change Nf1(NM_010897)” value ([4]; 2 days, pooled mRNA) of the same compound?
A: The value was 2.10 fold.

Q: And the “Fold change Pcna(NM_011045)” value ([4]; 2 days, pooled mRNA)?
A: Its value is 3.7 fold and 3.77 fold.

Q: What about the “Fold change Prkca(NM_011101)” value ([4]; 2 days, pooled mRNA) of the same compound?
A: Its value is 2.29 fold.

Q: And the “Fold change Tnf(NM_013693)” value ([4]; 2 days, pooled mRNA)?
A: Its value is −2.76 fold.

Q: And the “Fold change Tnfrsf10b(NM_020275)” value ([4]; 2 days, pooled mRNA)?
A: Its value is −2.28 fold.

Q: What about the “Fold change Trp73(NM_011642)” value ([4]; 2 days, pooled mRNA) of the same compound?
A: Its value is 2.5194 fold.

Q: And the “Fold change Wt1(NM_144783)” value ([4]; 2 days, pooled mRNA)?
A: Its value is 3.9 fold and 3.90 fold.

Q: What about the “Fold change Xrcc5(NM_009533)” value ([4]; 2 days, pooled mRNA) of the same compound?
A: Its value is −1.90 fold.

Q: What about the “hepatic cholesterol ester concentration” value [5] of the same compound?
A: The value was “not affected”.

Q: And the “lipid inclusions in liver (H&E morphology)” value [5]?
A: Its value is “significantly decreased”.

Q: And the “reduction of hepatic free cholesterol” value ([5]; normalized by liver weight)?
A: The value was 28%.

Q: And the “reduction of hepatic free fatty acid” value ([5]; normalized by liver weight)?
A: Its value is 23%.

Q: And the “reduction of hepatic total cholesterol” value ([5]; normalized by liver weight)?
A: The value was 15%.

Q: And the “reduction of hepatic triglyceride” value ([5]; normalized by liver weight)?
A: Its value is 30%.

Q: With `C[C@H](CCCC(C)(C)O)[C@H]1CC[C@H]2[C@@H]3CC=C4C[C@@H](O)CC[C@]4(C)[C@H]3CC[C@]12C` [25HC, 25-hydroxycholesterol] as the compound, how does the “cholesterol contents in LDL and HDL fractions” value [1] read?
A: The value was “significantly increased”.

Q: What about the “triglyceride contents in LDL fractions” value [1] of the same compound?
A: Its value is “significantly increased”.
